Source: PMC12071533, “Acridine-Based Chalcone 1C and ABC Transporters” (International Journal of Molecular Sciences, 2025)

Molecular target: T1, ABCB1 (multidrug resistance protein 1, P-glycoprotein) (Homo sapiens, UniProt P08183)
T1 construct: recombinant human ABCB1 in MDR1-Sf9 membranes
Experiment: vanadate-sensitive ATPase assay (Pi release) in MDR1-Sf9 membranes; inhibition of verapamil-stimulated activity, biphasic in the activation test
Format: biochemical
Settings: read-out: EC50 (the source's name)

For COc1cccc(OC)c1C(=O)/C=C/c1c2ccccc2nc2ccccc12 [1C, (2E)-3-(acridin-9-yl)-1-(2,6-dimethoxyphenyl)prop-2-en-1-one], the IC50 was 5.53 ± 0.97 µM.
